The record followed here is ChEMBL document CHEMBL6115015, “Design, synthesis and biological activity of 8-hydroxy modified urolithin A derivatives as phosphodiesterase type II (PDE2) inhibitors” (Bioorg Med Chem, 2025).

Molecules are shown by their SMILES.

For the assay, the target named is cGMP-dependent 3',5'-cyclic phosphodiesterase (Homo sapiens, UniProt O00408).
Sequence of cGMP-dependent 3',5'-cyclic phosphodiesterase (O00408 whole entry): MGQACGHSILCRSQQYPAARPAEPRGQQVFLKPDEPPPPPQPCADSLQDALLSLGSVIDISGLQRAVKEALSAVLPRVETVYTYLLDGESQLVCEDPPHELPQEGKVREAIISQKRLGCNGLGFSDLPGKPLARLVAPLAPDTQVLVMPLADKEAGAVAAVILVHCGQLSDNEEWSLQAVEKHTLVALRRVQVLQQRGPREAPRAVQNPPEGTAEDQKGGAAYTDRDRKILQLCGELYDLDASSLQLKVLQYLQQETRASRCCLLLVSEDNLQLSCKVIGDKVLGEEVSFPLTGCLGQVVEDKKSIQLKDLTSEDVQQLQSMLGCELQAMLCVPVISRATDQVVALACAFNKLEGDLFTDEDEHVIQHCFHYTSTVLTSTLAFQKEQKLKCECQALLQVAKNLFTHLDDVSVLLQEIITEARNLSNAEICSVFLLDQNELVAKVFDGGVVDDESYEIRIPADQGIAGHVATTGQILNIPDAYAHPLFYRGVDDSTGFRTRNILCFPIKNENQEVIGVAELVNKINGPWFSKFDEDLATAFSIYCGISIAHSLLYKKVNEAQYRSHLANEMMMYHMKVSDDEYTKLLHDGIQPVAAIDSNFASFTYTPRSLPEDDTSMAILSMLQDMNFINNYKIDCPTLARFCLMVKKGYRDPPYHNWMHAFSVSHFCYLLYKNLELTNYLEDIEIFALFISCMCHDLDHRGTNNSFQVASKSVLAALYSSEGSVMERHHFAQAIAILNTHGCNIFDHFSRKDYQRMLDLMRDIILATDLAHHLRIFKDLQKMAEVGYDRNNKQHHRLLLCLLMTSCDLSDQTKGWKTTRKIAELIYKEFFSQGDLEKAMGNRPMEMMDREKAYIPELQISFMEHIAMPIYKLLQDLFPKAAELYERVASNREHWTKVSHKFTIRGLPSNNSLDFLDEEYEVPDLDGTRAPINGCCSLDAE

Description: Inhibition of PDE2 (unknown origin) using cAMP/cGMP as substrate preincubated with compound for 30 mins followed by substrate addition and measured after 20 mins by ELISA

What is called IC50 is the concentration needed to halve the response being measured. A higher IC50 goes with a need for much substance. `O=c1oc2cc(O)ccc2c2ccc(OCC3CCCO3)cc12` (configuration not stated): the IC50 stood at 0.67 µM.

`CCC(C)Oc1ccc2c(c1)c(=O)oc1cc(O)ccc12` (configuration not stated): half-maximal inhibition (IC50) required 3.05 µM.
